We go through ten molecules from patent publication US20120053053A1, “PYRIMIDINE DERIVATIVES AND THEIR USE AS HERBICIDES” (SYNGENTA CROP PROTECTION, LLC, priority 2009, published 2012).

Common to all, as to assay type: in vivo
Assay [1] has as its system Alopecurus myosuroides (ALOMY). In words: Pre-emergence biological efficacy (percentage damage). Particulars: Alopecurus myosuroides, 312 h, dose 1,000 g/ha, evaluated after 13 days, 100=total damage, 0=no damage. A digest of the protocol: (§1)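 Percentage damage (100 = total, 0 = none) was assessed 13 days after treatment. Compound was sprayed at a final dose of 250 or 1000 g/ha onto soil sown one day earlier, with plants kept under controlled glasshouse conditions (24/16 °C, 14 h light, 65% humidity).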

Assay [2] has as its system Solanum nigrum (SOLNI). The assay is described as above. Particulars: Solanum nigrum, 312 h, dose 1,000 g/ha, evaluated after 13 days, 100=total damage, 0=no damage. In a few lines:
as §1

Assay [3] deals with Setaria faberi (SETFA). Described as above. The following applies: Setaria faberi, 312 h, dose 1,000 g/ha, evaluated after 13 days, 100=total damage, 0=no damage. In a few lines: as §1
Assay [4] concerns Amaranthus retoflexus (AMARE). Described as above. Particulars: Amaranthus retroflexus, 312 h, dose 1,000 g/ha, evaluated after 13 days, 100=total damage, 0=no damage. In a few lines: as §1
Assay [5] concerns Ipomea hederaceae (IPOHE). Described as above. Particulars: Ipomoea hederacea, 312 h, dose 1,000 g/ha, evaluated after 13 days, 100=total damage, 0=no damage. In a few lines:
as §1

The test system of assay [6] is Echinochloa crus-galli (ECHCG). The assay is described as above. Particulars: Echinochloa crus-galli, 312 h, dose 1,000 g/ha, evaluated after 13 days, 100=total damage, 0=no damage. In a few lines:
as §1

The test system of assay [7] is Alopecurus myosuroides (ALOMY). The assay can be described thus: Post-emergence biological efficacy (percentage damage). The following applies: Alopecurus myosuroides, 312 h, dose 1,000 g/ha, evaluated after 13 days, 100=total damage, 0=no damage. In a few lines: (§2)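 Post-emergence spray, 250 or 1000 g/ha, acetone/water 50:50 + 0.5% Tween 20, on 8-day-old potted plants; glasshouse 24/16 °C, 14 h light, 65% RH, watered twice daily; % damage read at 13 d.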

Assay [8] deals with Solanum nigrum (SOLNI). The assay is described as above. The following applies: Solanum nigrum, 312 h, dose 1,000 g/ha, evaluated after 13 days, 100=total damage, 0=no damage. A digest of the protocol:
as §2

For assay [9], the system named is Setaria faberi (SETFA). The description is as above. The following applies: Setaria faberi, 312 h, dose 1,000 g/ha, evaluated after 13 days, 100=total damage, 0=no damage. In a few lines:
as §2

Assay [10] relates to Amaranthus retoflexus (AMARE). The assay is described as above. Particulars: Amaranthus retroflexus, 312 h, dose 1,000 g/ha, evaluated after 13 days, 100=total damage, 0=no damage. In a few lines: as §2
Assay [11] has as its system Ipomea hederaceae (IPOHE). The description is as above. Particulars: Ipomoea hederacea, 312 h, dose 1,000 g/ha, evaluated after 13 days, 100=total damage, 0=no damage. In a few lines:
as §2

In assay [12] the test system is Echinochloa crus-galli (ECHCG). Described as above. The following applies: Echinochloa crus-galli, 312 h, dose 1,000 g/ha, evaluated after 13 days, 100=total damage, 0=no damage. A digest of the protocol: as §2

The pest or weed control is how far the test organism was held down. A high value points to strong suppression. Regarding `COC(=O)c1nc(-c2ccc(Cl)c(OC)c2F)nc(N)c1C=C(C)C` [Compound 27-69, 4-Amino-2-(4-chloro-2-fluoro-3-methoxyphenyl)-6-methoxycarbonyl-5-(2-methylprop-1-enyl)-pyrimidine], the pest or weed control at 1000 g/ha is 40% in [1]; 100% in the assay on Solanum nigrum (SOLNI) [2]; 60% in the assay on Setaria faberi (SETFA) [3]; 100% in assay [4]; 30% in assay [5]; 30% in [6]. For the same molecule, the pest or weed control at 1000 g/ha in [7] worked out at 40%; with Solanum nigrum (SOLNI) [8], 80%; in the assay with Setaria faberi (SETFA) [9] it was 40%; in assay [10], 90%; in assay [11], 40%; in assay [12] it was 10%.

As for `C=Cc1c(N)nc(-c2cc(F)c(Cl)c(F)c2)nc1C(=O)OC` [Compound 30-61, 4-Amino-2-(4-chloro-3,5-difluorophenyl)-5-ethenyl-6-methoxycarbonyl-pyrimidine], the pest or weed control at 1000 g/ha was 0% in [1]; 20% in the assay on Solanum nigrum (SOLNI) [2]; 0% in the assay on Setaria faberi (SETFA) [3]; 0% in assay [4]; 0% in assay [5]; 0% in assay [6]. Besides, the pest or weed control at 1000 g/ha was found to be 0% in assay [7]; 80% with Solanum nigrum (SOLNI) [8]; 0% in the assay with Setaria faberi (SETFA) [9]; 10% in assay [10]; 10% in [11]; 0% in assay [12].

Consider `CCc1c(N)nc(-c2ccc(C(F)(F)F)cc2)nc1C(=O)OC` [Compound 31-42, 4-amino-5-ethyl-6-methoxycarbonyl-2-(4-trifluoro-methylphenyl)-pyrimidine], for which the pest or weed control at 1000 g/ha (in [1]; with Solanum nigrum (SOLNI) [2]; in the assay with Setaria faberi (SETFA) [3]; in assay [4]; in assay [5]; in assay [6]) was 0% in each case. For the same molecule, the pest or weed control at 1000 g/ha in assay [7] turned out to be 0%; in the assay with Solanum nigrum (SOLNI) [8] it was 10%; with Setaria faberi (SETFA) [9], 0%; in assay [10], 0%; in [11], 0%; in [12], 0%.

With `COC(=O)c1nc(-c2ccc(C(F)(F)F)cc2)nc(N)c1C(C)=O` [Compound 31-53, 4-amino-6-methoxycarbonyl-5-methylcarbonyl-2-(4-trifluoromethylphenyl)-pyrimidine], the pest or weed control at 1000 g/ha came out at 80% in [1]; 100% in the assay with Solanum nigrum (SOLNI) [2]; 90% with Setaria faberi (SETFA) [3]; 100% in [4]; 90% in assay [5]; 90% in [6]. For the same molecule, the pest or weed control at 1000 g/ha came out at 90% in [7]; 100% in the assay with Solanum nigrum (SOLNI) [8]; 100% in the assay with Setaria faberi (SETFA) [9]; 100% in assay [10]; 90% in assay [11]; 100% in [12].

Consider `C=Cc1c(N)nc(-c2ccc(C(F)(F)F)cc2)nc1C(=O)OC` [Compound 31-61, 4-Amino-5-ethenyl-6-methoxycarbonyl-2-(4-trifluoromethyl-phenyl)-pyrimidine], for which the pest or weed control at 1000 g/ha stood at 0% in [1]; 0% in the assay on Solanum nigrum (SOLNI) [2]; 0% in the assay with Setaria faberi (SETFA) [3]; 10% in assay [4]; 0% in assay [5]; 0% in assay [6]. The pest or weed control at 1000 g/ha in [7] worked out at 20%; in the assay with Solanum nigrum (SOLNI) [8] it was 70%; in the assay on Setaria faberi (SETFA) [9], 0%; in [10] it was 70%; in [11], 10%; in assay [12], 0%.

Take `C/C=C/c1c(N)nc(-c2ccc(C(F)(F)F)cc2)nc1C(=O)OC` [Compound 31-62, 4-amino-6-methoxycarbonyl-5-prop-1-enyl-2-(4-tri-fluoromethylphenyl)-pyrimidine]: the pest or weed control at 1000 g/ha in [1] worked out at 0%; with Solanum nigrum (SOLNI) [2], 0%; in the assay with Setaria faberi (SETFA) [3], 0%; in assay [4], 20%; in assay [5] it was 0%; in assay [6], 0%. For the same molecule, the pest or weed control at 1000 g/ha stood at 0% in [7]; 50% in the assay with Solanum nigrum (SOLNI) [8]; 10% with Setaria faberi (SETFA) [9]; 30% in assay [10]; 50% in assay [11]; 0% in [12].

With `C=CCc1c(N)nc(-c2ccc(C(F)(F)F)cc2)nc1C(=O)OC` [Compound 31-63, 4-Amino-6-methoxycarbonyl-5-(prop-1-en-3-yl)-2-(4-trifluoromethyl-phenyl)-pyrimidine], the pest or weed control at 1000 g/ha (in assay [1]; in the assay on Solanum nigrum (SOLNI) [2]; in the assay with Setaria faberi (SETFA) [3]; in assay [4]; in [5]; in [6]) was 0% in each case. The pest or weed control at 1000 g/ha in assay [7] was found to be 0%; in the assay with Solanum nigrum (SOLNI) [8], 50%; in the assay on Setaria faberi (SETFA) [9], 0%; in [10], 40%; in assay [11] it was 40%; in [12] it was 0%.

Take `C=C(C)c1c(N)nc(-c2ccc(C(F)(F)F)cc2)nc1C(=O)OC` [Compound 31-64, 4-Amino-6-methoxycarbonyl-5-(prop-1-en-2-yl)-2-(4-trifluoromethyl-phenyl)-pyrimidine]: the pest or weed control at 1000 g/ha (in assay [1]; in the assay with Solanum nigrum (SOLNI) [2]; in the assay with Setaria faberi (SETFA) [3]; in assay [4]; in assay [5]; in assay [6]) was 0% throughout. The pest or weed control at 1000 g/ha in [7] stood at 0%; with Solanum nigrum (SOLNI) [8], 60%; in the assay on Setaria faberi (SETFA) [9], 20%; in assay [10], 40%; in [11], 60%; in assay [12], 0%.

Take `C=C(OCC)c1c(N)nc(-c2ccc(C(F)(F)F)cc2)nc1C(=O)OC` [Compound 31-67, 4-amino-5-(1-ethoxyethenyl)-6-methoxycarbonyl-2-(4-trifluoromethylphenyl)-pyrimidine]: the pest or weed control at 1000 g/ha (in [1]; with Solanum nigrum (SOLNI) [2]; in the assay with Setaria faberi (SETFA) [3]; in [4]; in [5]; in assay [6]) was 0% throughout. Also, the pest or weed control at 1000 g/ha in assay [7] stood at 0%; in the assay on Solanum nigrum (SOLNI) [8], 80%; with Setaria faberi (SETFA) [9], 0%; in assay [10] it was 50%; in assay [11] it was 80%; in assay [12], 0%.

For `CC(O)c1c(N)nc(-c2ccc(C(F)(F)F)cc2)nc1CO` (stereo not drawn) [Compound 31-372, 4-amino-5-(1-hydroxyethyl)-6-hydroxymethyl-2-(4-trifluoromethylphenyl)-pyrimidine], the pest or weed control at 1000 g/ha (in assay [1]; in the assay on Solanum nigrum (SOLNI) [2]; in the assay on Setaria faberi (SETFA) [3]; in assay [4]; in [5]; in assay [6]) was 0% in each case. Further, the pest or weed control at 1000 g/ha in [7] turned out to be 10%; with Solanum nigrum (SOLNI) [8], 30%; in the assay with Setaria faberi (SETFA) [9], 30%; in [10] it was 20%; in [11], 30%; in assay [12], 10%.
